These are literature values, as cited in patent US11129842B2, “Methods and compositions for treating diseases related to imbalance of essential fatty acids” (BODYBIO INC., priority 2018, dated 2021).

As usually defined, the Ki is the dissociation constant of the complex between target and ligand, obtained from inhibition or displacement.

One data set deals with CB1 cannabinoid receptor (Homo sapiens, UniProt P21554).
The target of the next data set is CB2 receptor (Homo sapiens, UniProt P34972).
Sequence of CB2 receptor (P34972 whole entry): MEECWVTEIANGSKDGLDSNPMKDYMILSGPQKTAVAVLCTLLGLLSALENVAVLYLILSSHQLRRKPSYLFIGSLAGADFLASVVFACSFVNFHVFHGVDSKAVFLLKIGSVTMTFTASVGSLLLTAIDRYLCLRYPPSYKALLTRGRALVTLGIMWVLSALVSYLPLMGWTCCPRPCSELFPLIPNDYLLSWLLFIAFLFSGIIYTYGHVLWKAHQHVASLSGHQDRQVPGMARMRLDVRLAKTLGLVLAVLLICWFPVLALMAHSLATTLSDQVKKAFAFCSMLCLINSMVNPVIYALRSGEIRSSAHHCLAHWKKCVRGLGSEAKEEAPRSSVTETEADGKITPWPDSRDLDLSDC

Sequence of CB1 cannabinoid receptor (P21554 whole entry): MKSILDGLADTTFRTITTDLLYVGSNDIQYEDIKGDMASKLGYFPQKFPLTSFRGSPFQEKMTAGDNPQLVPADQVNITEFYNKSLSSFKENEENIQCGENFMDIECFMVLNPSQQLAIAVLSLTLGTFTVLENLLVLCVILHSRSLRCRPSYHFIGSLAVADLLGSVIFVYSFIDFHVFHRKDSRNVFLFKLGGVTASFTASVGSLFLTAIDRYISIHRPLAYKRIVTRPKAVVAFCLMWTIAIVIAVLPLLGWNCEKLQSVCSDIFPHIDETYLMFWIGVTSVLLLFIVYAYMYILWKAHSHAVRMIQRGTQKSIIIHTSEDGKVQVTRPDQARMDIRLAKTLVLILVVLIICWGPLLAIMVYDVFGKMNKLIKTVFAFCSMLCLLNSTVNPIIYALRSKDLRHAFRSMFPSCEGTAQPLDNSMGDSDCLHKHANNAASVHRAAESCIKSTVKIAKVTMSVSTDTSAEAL

For the compound `CCCCC/C=C\C/C=C\C/C=C\C/C=C\CCCCOC(CO)CO` [Noladin ether, 2-arachidonyl glyceryl ether], the Ki at CB1 cannabinoid receptor was 21.2 nM. Also, the “binding to the CB2 receptor” value at CB2 receptor is given as “only weakly”.
